We go through 2 compounds from patent US20120328588A1, “COMPOUND PREPARATION AND ITS USES FOR PREVENTION AND TREATMENT OF HEARING IMPAIRMENT” (The Second Military Medical University of Chinese PLA, priority 2010, published 2012).

For assay [1], the system named is guinea pigs exposed to noise. Put plainly: Preventive effect on noise-induced hearing impairment: hearing threshold shift of guinea pigs, drug given two days before noise exposure. The assay is classed as in vivo. How it is done: Experiments with Hearing Threshold Shift Sixty-four guinea pigs with normal weight and pure white hair were randomly divided into control group, alpha-lipoic acid group, nimodipine group, and compound preparation group. The guinea pigs were exposed to an octave band of noise (OBN) centered at 4 kHz, 115 dB SPL, 4 h per day. Two days before noise exposure, animals in the study groups were administered with the corresponding drug dose as designed, and those in the control group were administered with normal saline (NS). Hearing threshold shift of the animals was determined at different intervals of noise exposure in different groups. The synergistic effect of alpha-lipoic acid and nimodipine on regulating hearing threshold shift was observed and analyzed using q test.
Being less than 20 dB was considered as an effective value. The synergistic effect of alpha-lipoic acid and nimodipine was analyzed using q test. Pla=2/8 means that there were 8 guinea pigs in the alpha-lipoic acid group, within which 2 were effective, and the remaining 6 were invalid. The mean of the rest was analogous to Pla=2/8.

The test system of assay [2] is guinea pigs exposed to noise. In words: Therapeutic effect on noise-induced hearing impairment: hearing threshold shift of guinea pigs, drug given intravenously within 7 days after noise exposure. The assay is classed as in vivo. As to the method:
Eighty guinea pigs with normal weight and pure white hair were randomly divided into control group, alpha-lipoic acid group, nimodipine group, and compound preparation group. The animals were exposed to an octave band of noise (OBN) centered at 4 kHz, 115 dB SPL, 4 h per day. Animals in the study groups were administered intravenously with the corresponding drug dose as designed, and those in the control group were administered with NS within 7 days after noise exposure. Hearing threshold shift of the animals was determined at different intervals of noise exposure in different groups. The synergistic effect of alpha-lipoic acid and nimodipine on regulating hearing threshold shift was observed and analyzed using q test.
Being less than 20 dB was considered as an effective value. The synergistic effect of alpha-lipoic acid and nimodipine was analyzed using q test. Pla=4/10 means that there were 10 guinea pigs in the alpha-lipoic acid group, within which 4 were effective, and the remaining 6 were invalid. The mean of the rest was analogous to Pla=4/10.

Consider `O=C(O)CCCCC1CCSS1` (stereo not shown) [LA, 1-2 dithiolane-3-pentanoic acid], for which the “Mean change in hearing threshold shift” value is listed as 32.5 dB in assay [1] (LA 80 mg/kg, at 1st after exposure); 20.5 dB in assay [1] (LA 80 mg/kg, at 7th day after exposure); 20.5 dB in assay [2] (LA 80 mg/kg intravenously, 2 weeks after exposure); 32.5 dB in assay [2] (LA 80 mg/kg intravenously, at 1st day after exposure). The “P (effective guinea pigs / guinea pigs in group)” value in assay [1] (LA 80 mg/kg, effective = mean hearing threshold shift less than 20 dB within 7 days of exposure to noise) is on record as “Pla = 2/8”; in assay [2] (LA 80 mg/kg intravenously, effective = mean hearing threshold shift less than 20 dB within 7 days after noise exposure) it was “Pla = 4/10”.

Turning to `COCCOC(=O)C1=C(C)NC(C)=C(C(=O)OC(C)C)C1c1cccc([N+](=O)[O-])c1` (stereo not shown) [NIM, Nimodipine], the “Mean change in hearing threshold shift” value in assay [1] (NIM 2 mg/kg, at 1st after exposure) stood at 41.0 dB; in assay [1] (NIM 2 mg/kg, at 7th day after exposure) it was 23.5 dB; in assay [1] (NIM 4 mg/kg, at 1st after exposure), 38.5 dB; in assay [1] (NIM 4 mg/kg, at 7th day after exposure), 24 dB; in assay [1] (NIM 8 mg/kg, at 1st after exposure) it was 38 dB; in assay [1] (NIM 8 mg/kg, at 7th day after exposure), 22.0 dB. Also, the “Mean change in hearing threshold shift” value in assay [1] (NIM 16 mg/kg, at 1st after exposure) was 36 dB; in assay [1] (NIM 16 mg/kg, at 7th day after exposure), 22.0 dB; in assay [2] (NIM 2 mg/kg intravenously, 2 weeks after exposure), 23.5 dB; in assay [2] (NIM 2 mg/kg intravenously, at 1st day after exposure) it was 41.0 dB; in assay [2] (NIM 4 mg/kg intravenously, 2 weeks after exposure), 24 dB; in assay [2] (NIM 4 mg/kg intravenously, at 1st day after exposure) it was 38.5 dB. Moreover, the “Mean change in hearing threshold shift” value in assay [2] (NIM 8 mg/kg intravenously, 2 weeks after exposure) was found to be 22.0 dB; in assay [2] (NIM 8 mg/kg intravenously, at 1st day after exposure), 38 dB; in assay [2] (NIM 16 mg/kg intravenously, 2 weeks after exposure) it was 22.0 dB; in assay [2] (NIM 16 mg/kg intravenously, at 1st day after exposure), 36 dB.
